Test results published in the supplement of paper PMC10307832.

Legend:
Assay in all cases: relative viability (nuclei count vs DMSO), 5 days (fraction); higher = more cells survive
[1] = compound: CC1=C(C=CC(=C1)[N+](=O)[O-])NS(=O)(=O)C2=C(C=CC(=C2)Cl)Cl [FH535] + COc1cccc2cc(-c3nc([C@H]4CC[C@H](C(=O)O)CC4)n4ncnc(N)c34)[nH]c12 [OSI-027] (partner 0.5 µM)
Summary of the method: (§1)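 Lung cancer cell lines in 1536-well plates got either a single drug or a fixed anchor-drug dose together with five library-drug doses (not always all listed) in √10 steps, by pin tool, on the day after seeding. Nuclei were counted after 5 days, and relative viability is the treated-to-vehicle ratio of nuclei counts. Values are medians of duplicate plates.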

[2] = compound: CC1=C(C=CC(=C1)[N+](=O)[O-])NS(=O)(=O)C2=C(C=CC(=C2)Cl)Cl [FH535] + Nc1nc2[nH]cc(CCc3ccc(C(=O)N[C@@H](CCC(=O)O)C(=O)O)cc3)c2c(=O)[nH]1 [Pemetrexed] (partner 0.2 µM)
Summary of the method: as §1

[3] = compound: CC1=C(C=CC(=C1)[N+](=O)[O-])NS(=O)(=O)C2=C(C=CC(=C2)Cl)Cl [FH535] + Cc1cc(Nc2cc(N3CCN(C)CC3)nc(Sc3ccc(NC(=O)C4CC4)cc3)n2)n[nH]1 [Tozasertib] (partner 0.1 µM)
Summary of the method: as §1

[4] = compound: CC1=C(C=CC(=C1)[N+](=O)[O-])NS(=O)(=O)C2=C(C=CC(=C2)Cl)Cl [FH535] + CC(C)C[C@H](NC(=O)[C@H](Cc1ccccc1)NC(=O)c1cnccn1)B(O)O [Bortezomib] (partner 0.002 µM)
Summary of the method: as §1

[5] = compound: CC1=C(C=CC(=C1)[N+](=O)[O-])NS(=O)(=O)C2=C(C=CC(=C2)Cl)Cl [FH535] + CC(=O)c1c(C)c2cnc(Nc3ccc(N4CCNCC4)cn3)nc2n(C2CCCC2)c1=O [Palbociclib] (partner 0.5 µM)
Summary of the method: as §1

Cell Line	relative viability ([1]; first compound 0.04 µM)	relative viability ([1]; first compound 0.1265 µM)	relative viability ([1]; first compound 0.4 µM)	relative viability ([1]; first compound 1.265 µM)	relative viability ([2]; first compound 0.04 µM)	relative viability ([2]; first compound 0.1265 µM)	relative viability ([2]; first compound 0.4 µM)	relative viability ([2]; first compound 1.265 µM)	relative viability ([3]; first compound 0.04 µM)	relative viability ([3]; first compound 0.1265 µM)	relative viability ([3]; first compound 0.4 µM)	relative viability ([3]; first compound 1.265 µM)	relative viability ([4]; first compound 0.04 µM)	relative viability ([4]; first compound 0.1265 µM)	relative viability ([4]; first compound 0.4 µM)	relative viability ([4]; first compound 1.265 µM)	relative viability ([5]; first compound 0.04 µM)	relative viability ([5]; first compound 0.1265 µM)	relative viability ([5]; first compound 0.4 µM)	relative viability ([5]; first compound 1.265 µM)
EKVX	0.676	0.778	0.618	0.618	0.366	0.47	0.413	0.379	0.405	0.402	0.452	0.333	1.04	0.762	1	0.704	0.422	0.396	0.333	0.292
HARA	0.41	0.441	0.418	0.427	0.258	0.254	0.234	0.286	0.0901	0.133	0.128	0.0965	1.03	0.987	1.11	0.73	0.233	0.278	0.277	0.241
EMC-BAC-2	0.339	0.402	0.395	0.364	0.408	0.422	0.419	0.423	0.289	0.312	0.306	0.254	0.961	1.13	1.06	1.03	0.546	0.507	0.526	0.512
PC-3 [JPC-3]	0.828	0.704	0.624	0.592	1.1	1.11	0.745	0.652	0.846	0.901	0.795	0.513	0.846	0.848	0.741	0.713	0.494	0.548	0.529	0.548
NCI-H1755	0.552	0.675	0.683	0.629	0.406	0.42	0.342	0.413	0.569	0.533	0.515	0.525	0.982	0.951	0.793	0.817	0.428	0.413	0.463	0.448
NCI-H2087	0.522	0.454	0.478	0.421	0.656	0.694	0.663	0.624	0.252	0.223	0.276	0.212	0.7	0.57	0.719	0.528	0.23	0.176	0.21	0.158
NCI-H2023	0.362	0.406	0.385	0.331	0.194	0.219	0.249	0.21	0.296	0.371	0.354	0.301	0.816	0.995	1.03	0.726	0.383	0.369	0.404	0.331
CAL-12T	0.63	0.688	0.504	0.407	1.24	1.38	1.04	0.877	0.288	0.324	0.243	0.212	0.846	0.936	0.626	0.268	0.344	0.442	0.393	0.25
NCI-H2085	0.644	0.709	0.602	0.508	0.926	1.02	0.804	0.677	0.845	0.784	0.726	0.522	1.14	0.917	0.977	0.819	0.507	0.45	0.448	0.365
NCI-H661	0.688	0.704	0.67	0.46	0.903	0.96	0.839	0.66	0.365	0.339	0.346	0.332	0.735	0.839	0.767	0.532	0.387	0.399	0.394	0.32
LCLC-97TM1	0.431	0.49	0.441	0.395	0.155	0.173	0.156	0.135	0.229	0.284	0.282	0.161	0.705	0.545	0.561	0.273	0.199	0.203	0.235	0.135
NCI-H2126	0.72	0.742	0.692	0.532	0.639	0.659	0.662	0.536	0.809	0.823	0.832	0.583	1.07	1.1	0.986	0.879	0.352	0.329	0.363	0.322
201T	0.728	0.484	0.719	0.538	0.344	0.336	0.356	0.275	0.919	0.953	0.976	0.743	1.02	1.05	1.1	1.03	0.374	0.344	0.332	0.301
